# Assay results reported in patent US20260295053A1, “COMPOUNDS FOR DEGRADATION AND INHIBITION OF KRAS (G12D) PROTEIN” (Shenzhen Ionova Life Science Co., Ltd., priority 2023, published 2026).
# Target: T1, KRAS (G12D) (Homo sapiens, UniProt P01116, G12D)
# T1 construct: in-cell western with KRAS G12D antibody after 24 h
# Test: KRAS (G12D) cellular degradation assay in AsPC-1 cells
# Assay type: cell-based
# Settings: 24 hours, antibody fluorescence (Odyssey CLX), DC50 half-maximal degradation concentration
# Summary of the method: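 Proliferation IC50 comes from CellTiter Glo luminescence after 6 days' exposure of AsPC-1 (3,500 cells/well) to 1:3 dilutions from […] to 1.5 nM. KRAS G12D DC50 derives from in-cell immunofluorescence normalised to β-actin after 24 h treatment of near-confluent AsPC-1 cells over the same range.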
# T1 sequence (P01116 1-188 isoform P01116-2 G12D): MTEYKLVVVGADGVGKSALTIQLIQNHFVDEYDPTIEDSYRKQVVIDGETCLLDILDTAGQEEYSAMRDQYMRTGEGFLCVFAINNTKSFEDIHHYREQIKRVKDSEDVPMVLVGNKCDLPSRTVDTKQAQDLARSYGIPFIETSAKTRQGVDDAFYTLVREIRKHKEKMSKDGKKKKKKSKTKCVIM
row,SMILES,DC50 [nM]
1,"CCn1ncc2c(C#C[C@H](CO)NC(=O)[C@@H]3C[C@@H](O)CN3C(=O)[C@H](C(C)C)n3cc(-c4ccc(COc5c(-c6c(C)c(F)cc7[nH]ncc67)c(C6CC6)cc6c(N7C[C@@H]8C[C@H]7CN8)nc(O[C@H]7C[C@@H](OC)C7)nc56)cc4)nn3)cccc21 [Example 163, (2S,4R)-1-((2S)-2-(4-(4-(((4-((1S,4S)-2,5-diazabicyclo[2.2.1]heptan-2-yl)-6-cyclopropyl-2-((1r,3R)-3-methoxycyclobutoxy)-7-(6-fluoro-5-methyl-1H-indazol-4-yl)quinazolin-8-yl)oxy)methyl)phenyl)-1H-1,2,3-triazol-1-yl)-3-methylbutanoyl)-N—((R)-4-(1-ethyl-1H-indazol-4-yl)-1-hydroxybut-3-yn-2-yl)-4-hydroxypyrrolidine-2-carboxamide]",10 to 100
2,"CO[C@@H](C)COc1nc(N2C[C@H]3C[C@@H]2CN3)c2cc(C3CC3)c(-c3c(C)c(F)cc4[nH]ncc34)c(OCc3ccc(-c4cn([C@H](C(=O)N5C[C@H](O)C[C@H]5C(=O)NCc5ccc(-c6scnc6C)cc5)C(C)C)nn4)cc3)c2n1 (single isomer, unassigned) [Example 11B]",> 1000
3,"CO[C@@H](C)COc1nc(N2CC3CCC(C2)N3)c2cc(C3CC3)c(-c3c(C)c(F)cc4[nH]ncc34)c(OCc3ccc(-c4cn([C@H](C(=O)N5C[C@H](O)C[C@H]5C(=O)N[C@@H](CO)c5ccc(-c6scnc6C)cc5)C(C)C)nn4)cc3)c2n1 (single isomer, unassigned) [Example 12B]",> 1000
4,"CCn1nccc1-c1ccc([C@H](CO)NC(=O)[C@@H]2C[C@@H](O)CN2C(=O)[C@H](C(C)C)n2cc(-c3ccc(COc4c(-c5c(C)c(F)cc6[nH]ncc56)c(C5CC5)cc5c(N6CCC[C@](C)(O)C6)nc(OC[C@H](C)OC)nc45)cc3)nn2)cc1 [Example 39, (2S,4R)-1-((2S)-2-(4-(4-(((6-cyclopropyl-7-(6-fluoro-5-methyl-1H-indazol-4-yl)-4-((S)-3-hydroxy-3-methylpiperidin-1-yl)-2-((S)-2-methoxypropoxy)quinazolin-8-yl)oxy)methyl)phenyl)-1H-1,2,3-triazol-1-yl)-3-methylbutanoyl)-N—((R)-1-(4-(1-ethyl-1H-pyrazol-5-yl)phenyl)-2-hydroxyethyl)-4-hydroxypyrrolidine-2-carboxamide]",10 to 100
5,"CCn1nccc1-c1ccc([C@H](CO)NC(=O)[C@@H]2C[C@@H](O)CN2C(=O)[C@H](C(C)C)n2cc(-c3ccc(COc4c(-c5c(C)c(F)c(F)c6[nH]ncc56)c(C5CCC5)cc5c(N6C[C@@H]7C[C@H]6CN7)nc(OC[C@H](C)OC)nc45)cc3)nn2)cc1 [Example 106, (2S,4R)-1-((2S)-2-(4-(4-(((4-((1S,4S)-2,5-diazabicyclo[2.2.1]heptan-2-yl)-6-cyclobutyl-7-(6,7-difluoro-5-methyl-1H-indazol-4-yl)-2-((S)-2-methoxypropoxy)quinazolin-8-yl)oxy)methyl)phenyl)-1H-1,2,3-triazol-1-yl)-3-methylbutanoyl)-N—((R)-1-(4-(1-ethyl-1H-pyrazol-5-yl)phenyl)-2-hydroxyethyl)-4-hydroxypyrrolidine-2-carboxamide]",10 to 100
6,"Cc1ncsc1-c1ccc([C@H](CO)NC(=O)[C@@H]2C[C@@H](O)CN2C(=O)[C@H](C(C)C)n2cc(-c3ccc(COc4c(-c5c(C)c(F)cc6[nH]ncc56)c(C5CC5)cc5c(N6C[C@H]7C[C@@H]6CN7)nc(OC6CCOCC6)nc45)cc3)nn2)cc1 (single isomer, unassigned) [Example 5B]",> 1000

# Now from value to compound:
row,DC50 [nM],SMILES
1,10 to 100,"CCn1nccc1-c1ccc([C@H](CO)NC(=O)[C@@H]2C[C@@H](O)CN2C(=O)[C@H](C(C)C)n2cc(-c3ccc(COc4c(-c5c(C)c(F)cc6[nH]ncc56)c(C5CC5)cc5c(N6CCCC(C#N)CC6)nc(OC[C@H](C)OC)nc45)cc3)nn2)cc1 (stereo partly drawn) [Example 182, (2S,4R)-1-((2S)-2-(4-(4-(((4-(4-cyanoazepan-1-yl)-6-cyclopropyl-7-(6-fluoro-5-methyl-1H-indazol-4-yl)-2-((S)-2-methoxypropoxy)quinazolin-8-yl)oxy)methyl)phenyl)-1H-1,2,3-triazol-1-yl)-3-methylbutanoyl)-N—((R)-1-(4-(1-ethyl-1H-pyrazol-5-yl)phenyl)-2-hydroxyethyl)-4-hydroxypyrrolidine-2-carboxamide]"
2,< 10,CO[C@@H]1CC[C@@H](Oc2nc(N3C[C@@H]4C[C@H]3CN4)c3cc(C4CC4)c(-c4c(C)c(F)cc5[nH]ncc45)c(OCc4ccc(-c5cn([C@H](C(=O)N6C[C@H](O)C[C@H]6C(=O)N[C@H](c6ccc(-c7scnc7C)cc6)[C@H](C)O)C(C)C)nn5)cc4)c3n2)C1 [Example 212]
3,< 10,"CCn1nccc1-c1ccc([C@@H](NC(=O)[C@@H]2C[C@@H](O)CN2C(=O)[C@H](C(C)C)n2cc(-c3ccc(COc4c(-c5c(C)c(F)cc6[nH]ncc56)c(C5CC5)cc5c(N(C)[C@H]6CCNC6)nc(OC[C@H]6CCCO6)nc45)cc3)nn2)[C@H](C)O)c2c1CC2 [Example 209, (2S,4R)-1-((2S)-2-(4-(4-(((6-cyclopropyl-7-(6-fluoro-5-methyl-1H-indazol-4-yl)-4-(methyl((S)-pyrrolidin-3-yl)amino)-2-(((R)-tetrahydrofuran-2-yl)methoxy)quinazolin-8-yl)oxy)methyl)phenyl)-1H-1,2,3-triazol-1-yl)-3-methylbutanoyl)-N-((1R,2S)-1-(5-(1-ethyl-1H-pyrazol-5-yl)bicyclo[4.2.0]octa-1(6),2,4-trien-2-yl)-2-hydroxypropyl)-4-hydroxypyrrolidine-2-carboxamide]"
4,10 to 100,"CO[C@@H](C)COc1nc(N2C[C@@H]3C[C@H]2CN3)c2cc(C3CC3)c(-c3c(C)c(F)cc4[nH]ncc34)c(OCc3ccc(-c4cn([C@H](C(=O)N5C[C@H](O)C[C@H]5C(=O)N[C@H](C#Cc5ccccc5)CO)C(C)C)nn4)cc3)c2n1 [Example 123, (2S,4R)-1-((2S)-2-(4-(4-(((4-((1S,4S)-2,5-diazabicyclo[2.2.1]heptan-2-yl)-6-cyclopropyl-7-(6-fluoro-5-methyl-1H-indazol-4-yl)-2-((S)-2-methoxypropoxy)quinazolin-8-yl)oxy)methyl)phenyl)-1H-1,2,3-triazol-1-yl)-3-methylbutanoyl)-4-hydroxy-N—((R)-1-hydroxy-4-phenylbut-3-yn-2-yl)pyrrolidine-2-carboxamide]"
5,< 10,"CO[C@@H](C)COc1nc(N(C)[C@H]2CCNC2)c2cc(C3CC3)c(-c3c(C)c(F)c(F)c4[nH]ncc34)c(OCc3ccc(-c4cn([C@H](C(=O)N5C[C@H](O)C[C@H]5C(=O)N[C@H](c5ccc(-c6scnc6C)cc5)C(C)O)C(C)C)nn4)cc3)c2n1 (stereo in doubt) [Example 145, (2S,4R)-1-((2S)-2-(4-(4-(((6-cyclopropyl-7-(6,7-difluoro-5-methyl-1H-indazol-4-yl)-2-((S)-2-methoxypropoxy)-4-(methyl((S)-pyrrolidin-3-yl)amino)quinazolin-8-yl)oxy)methyl)phenyl)-1H-1,2,3-triazol-1-yl)-3-methylbutanoyl)-4-hydroxy-N-((1R,2R)-2-hydroxy-1-(4-(4-methylthiazol-5-yl)phenyl)propyl)pyrrolidine-2-carboxamide]"
6,< 10,"CCn1nccc1-c1ccc([C@@H](NC(=O)[C@@H]2C[C@@H](O)CN2C(=O)[C@H](C(C)C)n2cc(-c3ccc(COc4c(-c5c(C)c(F)cc6[nH]ncc56)c(C5CC5)cc5c(N(C)[C@H]6CCNC6)nc(OC[C@@H]6CCCO6)nc45)cc3)nn2)[C@H](C)O)c2c1CC2 [Example 210, (2S,4R)-1-((2S)-2-(4-(4-(((6-cyclopropyl-7-(6-fluoro-5-methyl-1H-indazol-4-yl)-4-(methyl((S)-pyrrolidin-3-yl)amino)-2-(((S)-tetrahydrofuran-2-yl)methoxy)quinazolin-8-yl)oxy)methyl)phenyl)-1H-1,2,3-triazol-1-yl)-3-methylbutanoyl)-N-((1R,2S)-1-(5-(1-ethyl-1H-pyrazol-5-yl)bicyclo[4.2.0]octa-1(6),2,4-trien-2-yl)-2-hydroxypropyl)-4-hydroxypyrrolidine-2-carboxamide]"
7,10 to 100,"CO[C@@H](C)COc1nc(N2C[C@@H]3C[C@H]2CN3)c2cc(C3CC3)c(-c3c(C)c(F)cc4[nH]ncc34)c(OCc3ccc(-c4cn([C@H](C(=O)N5C[C@H](O)C[C@H]5C(=O)N[C@H](C#Cc5cncc6ncsc56)CO)C(C)C)nn4)cc3)c2n1 [Example 118, (2S,4R)-1-((2S)-2-(4-(4-(((4-((1S,4S)-2,5-diazabicyclo[2.2.1]heptan-2-yl)-6-cyclopropyl-7-(6-fluoro-5-methyl-1H-indazol-4-yl)-2-((S)-2-methoxypropoxy)quinazolin-8-yl)oxy)methyl)phenyl)-1H-1,2,3-triazol-1-yl)-3-methylbutanoyl)-4-hydroxy-N—((R)-1-hydroxy-4-(thiazolo[4,5-c]pyridin-7-yl)but-3-yn-2-yl)pyrrolidine-2-carboxamide]"
8,< 10,"CCn1nccc1-c1ccc([C@H](CO)NC(=O)[C@@H]2C[C@@H](O)CN2C(=O)[C@H](C(C)C)n2cc(-c3ccc(COc4c(-c5c(C)c(F)c(F)c6[nH]ncc56)c(C5CC5)cc5c(N6C[C@@H]7C[C@H]6CN7)nc(OC6CCC7(CC6)COC7)nc45)cc3)nn2)cc1 [Example 110, (2S,4R)-1-((2S)-2-(4-(4-(((2-((2-oxaspiro[3.5]nonan-7-yl)oxy)-4-((1S,4S)-2,5-diazabicyclo[2.2.1]heptan-2-yl)-6-cyclopropyl-7-(6,7-difluoro-5-methyl-1H-indazol-4-yl)quinazolin-8-yl)oxy)methyl)phenyl)-1H-1,2,3-triazol-1-yl)-3-methylbutanoyl)-N—((R)-1-(4-(1-ethyl-1H-pyrazol-5-yl)phenyl)-2-hydroxyethyl)-4-hydroxypyrrolidine-2-carboxamide]"
